Literature values as cited in patent publication US20090175824A1, “Peptides for the treatment of HCV infections” (priority 2007, published 2009).

Conditions: patients with hepatitis C

Compound: CC(C)(C)NC(=O)NC(C(=O)N1CC2C(C1C(=O)NC(CC1CCC1)C(=O)C(N)=O)C2(C)C)C(C)(C)C (centres unmarked) [boceprevir, N-(4-amino-1-cyclobutyl-3,4-dioxobutan-2-yl)-3-(2-(3-tert-butylureido)-3,3-dimethylbutanoyl)-6,6-dimethyl-3-azabicyclo[3.1.0]hexane-2-carboxamide]
- adverse events: infrequent and included headache, fever and myalgia
- tolerability: well-tolerated
